Legend:
[1] = test system: C57BL/6 mice with high-fat diet-induced obesity; test: Weight-reducing effect in the mouse model of high fat diet-induced obesity; assay type: in vivo; details: 20 mg/kg oral once a day; for food intake versus control groups: eight weeks; for rate of weight gain at the end of eight weeks compared to the control group: p<0.05
Method: Three week-old C57BL/6 mice were acclimated for one week and fed with high-fat diet (product #D12492, Research Diet Inc., New Brunswick, N.J., USA) for six weeks to induce obesity. Mice were randomly divided into experimental and control groups, in total of four groups, ten per each group. The experimental groups were orally administered with either 5,7-dimethoxyflavone or 5,7,4′-trimethoxyflavone suspended in 0.25% carboxymethyl cellulose at a dose of 20 mg/kg body weight, once a day at regular hours for eight weeks. For comparison, the control groups were orally administered with 0.25% carboxymethyl cellulose only in the same manner as the experimental groups. Food intake and body weight of each sample mouse were measured every week.

3T3-L1 preadipocytes = test: Inhibition of lipid production, Oil Red O staining of differentiated adipocytes; assay type: cell-based
Method: 3T3-L1 preadipocytes (American Type Culture Collection (ATCC), Manassas, Va., USA) were cultured in DMEM (Dulbecco's Modified Eagle's Medium) supplemented with 10% bovine calf serum, and seeded into 12-well microtiter plates with a density of 10^5 cells/well. Adipocyte differentiation was induced when the preadipocytes reached approximately 100% confluence after growing two more days at 90% confluence. For the experimental groups, induction of adipocyte differentiation was performed in the presence of 5,7-dimethoxyflavone at the concentration of 5, 10, or 20 μM dissolved in the culture medium containing dexamethasone, IBMX (3-isobutyl-1-methylxanthine), and insulin. Afterwards, cells of the experimental groups were maintained continuously in the presence of the same concentrations of 5,7-dimethoxyflavone dissolved in the culture medium containing 10% FBS and 0.1% insulin, replacing the medium every two days. For comparison, control cells were treated the same way as the cells of the experimental groups except for the 5,7-dimethoxyflavone treatment. On day 10 since induction of differentiation, fully differentiated adipocytes were stained with Oil Red O (Sigma, St. Louis, Mo., USA). Stained lipid droplets in the adipocytes were extracted with 100% isopropanol and subjected to the measurement of the absorbance at 500 nm using a spectrophotometer. […]

[2] = test system: UCP2 and UCP3 expression in 3T3-L1 adipocytes; test: Western blot of thermogenic proteins; assay type: cell-based
Method: (§1) It was examined whether the expression of proteins involved in lipid production was reduced by 5,7-dimethoxyflavone treatments in 3T3-L1 adipocytes. 3T3-L1 adipocytes were induced to differentiate in the same manner as described in Example 1-1, and were lysed with a RIPA buffered solution containing a proteinase inhibitor cocktail. Protein samples were boiled for 5 minutes, loaded ([…]) on 10% SDS-PAGE gels and separated by electrophoresis. Separated proteins were transferred to the nitrocellulose membranes and subjected to western blot experiments. Protein-transferred membranes were reacted with primary antibodies, rinsed with TBST three times, 10 minutes each. The dilution ratio of primary antibodies was 1:1000. Membranes reacted with primary antibodies were followed with secondary antibody incubation (anti-rabbit horseradish) for 2 hours at room temperature. The dilution ratio of secondary antibodies was 1:5000. Protein bands were visualized with ECL western blotting detection reagents (Amersham, Tokyo, Japan). Proteins were harvested after eight days and subjected to western blot experiments.
Proteins were harvested from the 3T3-L1 adipocytes differentiated as described in Example 1-1, and subjected to western blot experiments in the same manner as in Example 1-2.

[3] = test system: SREBP1c, C/EBP, FAS and ACC expression in 3T3-L1 adipocytes; test: Western blot of lipogenic transcription factors and enzymes; assay type: cell-based; details: proteins harvested after eight days
Method: as §1

## COc1ccc(-c2cc(=O)c3c(OC)cc(OC)cc3o2)cc1 [5,7,4′-trimethoxyflavone]
[1]
  food intake versus control groups: no significant difference
  rate of weight gain at the end of eight weeks compared to the control group: significantly lower
3T3-L1 preadipocytes; 20 μM, p<0.01
  reduction in lipid production compared to the control: 28%

## COc1cc(OC)c2c(=O)cc(-c3ccccc3)oc2c1 [5,7-dimethoxyflavone]
[1]
  food intake versus control groups: no significant difference
  rate of weight gain at the end of eight weeks compared to the control group: significantly lower
[2]
  expression of UCP2 and UCP3: upregulated the expression of UCP2 and UCP3
[3]
  expression of SREBP1c, C/EBP, FAS and ACC: reduction in the expression
3T3-L1 preadipocytes; 5, 10 or 20 μM, day 10 after induction of differentiation, Oil Red O, absorbance 500 nm
  lipid production in 3T3-L1 adipocytes: suppresses lipid production in 3T3-L1 adipocytes effectively

Source: patent publication US9511048B2, “Use of flavone compound for prevention or treatment of obesity” (INDUSTRY-ACADEMIC COOPERATION FOUNDATION, YONSEI UNIVERSITY, priority 2012, dated 2016)
